35 molecules from patent US20240116897A1, “BENZOTHIAZOLE AND BENZIMIDAZOLE DERIVATIVES, PHARMACEUTICALLY ACCEPTABLE SALT THEREOF, PREPARATION METHOD THEREFOR, AND PHARMACEUTICAL COMPOSITION COMPRISING SAME AS ACTIVE INGREDIENT” (KOREA RESEARCH INSTITUTE OF CHEMICAL TECHNOLOGY, priority 2021, published 2024) can be followed below.

Broadly, the inhibition is the drop in the measured response relative to a control, in per cent.

For this assay, the target named is T1, SIRT7 protein (Homo sapiens, UniProt Q9NRC8).
T1 construct: purchased SignalChem S41-30H
T1 sequence (Q9NRC8 1-400): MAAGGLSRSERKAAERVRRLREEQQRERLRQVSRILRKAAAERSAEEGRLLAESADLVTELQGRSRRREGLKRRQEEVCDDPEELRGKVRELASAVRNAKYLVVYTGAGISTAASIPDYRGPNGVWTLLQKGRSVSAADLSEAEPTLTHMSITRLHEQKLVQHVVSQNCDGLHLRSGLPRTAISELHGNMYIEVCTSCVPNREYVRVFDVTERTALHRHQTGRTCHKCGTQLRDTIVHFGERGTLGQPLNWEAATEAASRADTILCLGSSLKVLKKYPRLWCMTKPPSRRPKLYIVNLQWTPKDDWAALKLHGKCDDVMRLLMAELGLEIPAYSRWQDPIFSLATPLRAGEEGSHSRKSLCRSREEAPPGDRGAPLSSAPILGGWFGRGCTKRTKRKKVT
Nature of the assay: SIRT Glo assay, inhibitory activity against Sirt7. It counts as biochemical. The conditions noted are these: 10 μM compound. The protocol:
Promega's Cat. No. 6450 SIRT Glo assay kit was used, and as the target SIRT7 protein, No. S41-30H protein of SignalChem's Cat. was used. Prepare the compound by diluting it in SIRT Glo buffer in advance to a concentration twice as thick as the final concentration. For the positive control group of white 384 well plate (Greiner Bioone, white, small volume, Cat. No. 874075), and for compound group, dilute sirt7 protein in SIRT Glo buffer and dispense by 5 μL to contain 20 ng per well. In the background control group, 10 μL of SIRT Glo buffer is dispensed.
After adding 5 μL of SIRT Glo buffer to the positive control group, and 5 μL of the diluted compound to the compound group, react for 30 minutes. After making the substrate provided in the SIRT Glo assay, adding 10 μL each, and reacting for 1 hour, the luciferase activity is measured with a microplate reader (Molecular Device, spectramax i3).
Subtract the luciferase level of the background control group in all wells. The % inhibition of the compound was used to obtain the compound's rate of inhibitory activity against sirt7 in the following:
% inhibition=100−(compound group/positive control group)×100.

The molecule `CC(C)(C)OC(=O)N1CCN(Cc2ccc(C(=O)Nc3nc4ccccc4[nH]3)cc2)CC1` [Compound 1-1, Tert-Butyl 4-(4-((1H-benzo[d]imidazol-2-yl)carbamoyl)benzyl)piperazine-1-carboxylate] had an inhibition at 10 µM of 12%.
Next, `Cn1c(NC(=O)c2ccc(CN3CCN(C(=O)OC(C)(C)C)CC3)cc2)nc2ccccc21` [Compound 1-2, Tert-Butyl 4-(4-((1-methyl-1H-benzo[d]imidazol-2-yl)carbamoyl)benzyl)piperazine-1-carboxylate]: 8%.
Molecule `O=C(Nc1nc2ccccc2[nH]1)c1ccc(CN2CCNCC2)cc1` [Compound 1-3, N-(1H-benzo[d]imidazol-2-yl)-4-(piperazin-1-ylmethyl)benzamide] registered an inhibition at 10 µM of 10%.
As for `Cc1ccc(Oc2ccc(C(=O)Nc3nc4ccccc4[nH]3)cc2)nn1` [Compound 1-4, N-(1H-benzo[d]imidazol-2-yl)-4-((6-methylpyridazin-3-yl)oxy)benzamide], the figure is 90%.
For `Cc1ccc(Oc2cccc(C(=O)Nc3nc4ccccc4[nH]3)c2)nn1` [Compound 1-5, N-(1H-benzo[d]imidazol-2-yl)-3-((6-methylpyridazin-3-yl)oxy)benzamide], at 10 µM the inhibition was 65%.
As for `Cc1ccc(Oc2ccc(C(=O)Nc3nc4cc(F)ccc4[nH]3)cc2)nn1` [Compound 1-6, N-(5-fluoro-1H-benzo[d]imidazol-2-yl)-4-((6-methylpyridazin-3-yl)oxy)benzamide], the figure is 92%.
As for `Cc1ccc(Oc2ccc(C(=O)Nc3nc4cc(F)c(F)cc4[nH]3)cc2)nn1` [Compound 1-7, N-(5,6-difluoro-1H-benzo[d]imidazol-2-yl)-4-((6-methylpyridazin-3-yl)oxy)benzamide], the figure is 5%; as for `CCc1cnc(Oc2cccc(C(=O)Nc3nc4ccccc4[nH]3)c2)nc1` [Compound 1-8, N-(1H-benzo[d]imidazol-2-yl)-3-((5-ethylpyrimidin-2-yl)oxy)benzamide], 44%.
As for `CCc1cnc(Oc2ccc(C(=O)Nc3nc4ccccc4[nH]3)cc2)nc1` [Compound 1-9, N-(1H-benzo[d]imidazol-2-yl)-4-((5-ethylpyrimidin-2-yl)oxy)benzamide], the figure is 63%; as for `O=C(Nc1nc2ccccc2[nH]1)c1ccc(Oc2ncc(F)cn2)cc1` [Compound 1-10, N-(1H-benzo[d]imidazol-2-yl)-4-((5-fluoropyrimidin-2-yl)oxy)benzamide], 56%.
As to `O=C(Nc1nc2ccccc2[nH]1)c1cccc(Oc2ncc(F)cn2)c1` [Compound 1-11, N-(1H-benzo[d]imidazol-2-yl)-3-((5-fluoropyrimidin-2-yl)oxy)benzamide], the inhibition at 10 µM was found to be 21%.
`O=C(Nc1nc2ccccc2[nH]1)c1ccc(OCc2ccccc2)cc1` [Compound 1-12, N-(1H-benzo[d]imidazol-2-yl)-4-(benzyloxy)benzamide]: at 10 µM the inhibition was 99%.
As for `O=C(Nc1nc2ccccc2[nH]1)c1ccc(OCc2ccc(C(F)(F)F)cc2)cc1` [Compound 1-13, N-(1H-benzo[d]imidazol-2-yl)-4-((4-(trifluoromethyl)benzyl)oxy)benzamide], the figure is 21%; as for `O=C(Nc1nc2ccccc2n1Cc1ccc(C(F)(F)F)cc1)c1ccc(OCc2ccc(C(F)(F)F)cc2)cc1` [Compound 1-14, N-(1-(4-(trifluoromethyl)benzyl)-1H-benzo[d]imidazol-2-yl)-4-((4-(trifluoromethyl)benzyl)oxy)benzamide], 15%; as for `Cc1ccc(Oc2ccc(C(=O)Nc3nc4ccccc4s3)cc2)nn1` [Compound 1-15, N-(benzo[d]thiazol-2-yl)-4-((6-methylpyridazin-3-yl)oxy)benzamide], 52%.
Next, `Cc1ccc(Oc2ccc(C(=O)Nc3nc4cccnc4s3)cc2)nn1` [Compound 1-16, 4-((6-methylpyridazin-3-yl)oxy)-N-(thiazolo[5,4-b]pyridin-2-yl)benzamide]: 87%.
Next, `Cc1ccc(Oc2cccc(C(=O)Nc3nc4ccccc4s3)c2)nn1` [Compound 1-17, N-(benzo[d]thiazol-2-yl)-3-((6-methylpyridazin-3-yl)oxy)benzamide]: 88%.
`Cc1ccc(Oc2ccc(C(=O)Nc3nc4ccc(Br)cc4s3)cc2)nn1` [Compound 1-18, N-(6-bromobenzo[d]thiazol-2-yl)-4-((6-methylpyridazin-3-yl)oxy)benzamide] had an inhibition at 10 µM of 5%.
As for `CCc1cnc(Oc2ccc(C(=O)Nc3nc4ccccc4s3)cc2)nc1` [Compound 1-19, N-(benzo[d]thiazol-2-yl)-4-((5-ethylpyrimidin-2-yl)oxy)benzamide], the figure is 13%; as for `CCc1cnc(Oc2cccc(C(=O)Nc3nc4ccccc4s3)c2)nc1` [Compound 1-20, N-(benzo[d]thiazol-2-yl)-3-((5-ethylpyrimidin-2-yl)oxy)benzamide], 63%; as for `O=C(Nc1nc2ccccc2s1)c1ccc(Oc2ncc(F)cn2)cc1` [Compound 1-21, N-(benzo[d]thiazol-2-yl)-4-((5-fluoropyrimidin-2-yl)oxy)benzamide], 41%.
As for `CC(C)(C)OC(=O)N1CCN(c2nc3ccccc3s2)CC1` [Compound 1-22, tert-butyl 4-(benzo[d]thiazol-2-yl)piperazine-1-carboxylate], the figure is 49%; as for `c1ccc2sc(N3CCC4(CC3)OCCO4)nc2c1` [Compound 1-23, 8-(benzo[d]thiazol-2-yl)-1,4-dioxa-8-azaspiro[4.5]decane], 78%.
As for `CC(C)(C)OC(=O)N1CCC2(CC1)CN(c1nc3ccccc3s1)C2` [Compound 1-24, tert-butyl 2-(benzo[d]thiazol-2-yl)-2,7-diazaspiro[3.5]nonane-7-carboxylate], the figure is 10%; as for `CC(C)(C)OC(=O)N1C[C@@H]2C[C@H]1CN2Cc1ccc(C(=O)Nc2nc3ccccc3s2)cc1` [Compound 1-25, Tert-Butyl (1S,4S)-5-(4-(benzo[d]thiazol-2-ylcarbamoyl)benzyl)-2,5-diazabicyclo[2.2.1]heptane-2-carboxylate], 72%; as for `CC(C)(C)OC(=O)N1CCN(Cc2ccc(C(=O)Nc3nc4ccccc4s3)cc2)CC1` [Compound 1-26, Tert-Butyl 4-(4-(benzo[d]thiazol-2-ylcarbamoyl)benzyl)piperazine-1-carboxylate], 40%.
Molecule `CC(C)(C)OC(=O)N1CC2(CCN(Cc3ccc(C(=O)Nc4nc5ccccc5s4)cc3)CC2)C1` [Compound 1-27, tert-butyl 7-(4-(benzo[d]thiazol-2-ylcarbamoyl)benzyl)-2,7-diazaspiro[3.5]nonane-2-carboxylate] had an inhibition at 10 µM of 27%.
As for `CC(C)(C)OC(=O)N1CCC2(CCN(Cc3ccc(C(=O)Nc4nc5ccccc5s4)cc3)CC2)CC1` [Compound 1-28, tert-butyl 9-(4-(benzo[d]thiazol-2-ylcarbamoyl)benzyl)-3,9-diazaspiro[5.5]undecane-3-carboxylate], the figure is 62%; as for `O=C(Nc1nc2ccccc2s1)c1ccc(CN2CCC3(CC2)OCCO3)cc1` [Compound 1-29, 4-((1,4-dioxa-8-azaspiro[4.5]decan-8-yl)methyl)-N-(benzo[d]thiazol-2-yl)benzamide], 83%.
Next, `c1ccc(CN2CCC3(CC2)CN(c2nc4ccccc4s2)C3)cc1` [Compound 1-30, 2-(7-benzyl-2,7-diazaspiro[3.5]nonan-2-yl)benzo[d]thiazole]: 19%; `O=C(Nc1nc2ccccc2s1)c1ccc(CN2CCNCC2)cc1` [Compound 1-31, N-(benzo[d]thiazol-2-yl)-4-(piperazin-1-ylmethyl)benzamide]: 15%; `CCS(=O)(=O)N1CCN(Cc2ccc(C(=O)Nc3nc4ccccc4s3)cc2)CC1` [Compound 1-32, N-(benzo[d]thiazol-2-yl)-4-((4-(ethylsulfonyl)piperazin-1-yl)methyl)benzamide]: 34%.
In turn, `CN(C)S(=O)(=O)N1CCN(Cc2ccc(C(=O)Nc3nc4ccccc4s3)cc2)CC1` [Compound 1-33, N-(benzo[d]thiazol-2-yl)-4-((4-(N,N-dimethylsulfamoyl)piperazin-1-yl)methyl)benzamide] yielded an inhibition at 10 µM of 33%.
Next, `O=C(Nc1nc2ccccc2s1)c1ccc(CN2CCN(S(=O)(=O)C3CC3)CC2)cc1` [Compound 1-34, N-(benzo[d]thiazol-2-yl)-4-((4-(cyclopropylsulfonyl)piperazin-1-yl)methyl)benzamide]: 29%.
Next, `O=C(Nc1nc2ccccc2s1)c1ccc(CN2CCN(S(=O)(=O)c3ccccc3)CC2)cc1` [Compound 1-35, N-(benzo[d]thiazol-2-yl)-4-((4-(phenylulfonyl)piperazin-1-yl)methyl)benzamide]: 20%.
